Non-standard residues stand in square brackets, D forms with d. Residues, ends and D or L forms follow the SMILES beside them. *: point of attachment. Sta = CC(C)C[C@H](N)[C@@H](O)CC(=O)O; Isovaleryl = CC(C)CC(=O)*
Legend:
[1] = biological target: T1, human renin (Homo sapiens, UniProt P00797); assay: Human Renin Inhibition in vitro (angiotensin I by radioimmunoassay); format: biochemical; conditions: pH 7.4, two hours at 37° C.
T1 construct: purchased National Institute for Biological Standards, London
T1 sequence (P00797 67-406): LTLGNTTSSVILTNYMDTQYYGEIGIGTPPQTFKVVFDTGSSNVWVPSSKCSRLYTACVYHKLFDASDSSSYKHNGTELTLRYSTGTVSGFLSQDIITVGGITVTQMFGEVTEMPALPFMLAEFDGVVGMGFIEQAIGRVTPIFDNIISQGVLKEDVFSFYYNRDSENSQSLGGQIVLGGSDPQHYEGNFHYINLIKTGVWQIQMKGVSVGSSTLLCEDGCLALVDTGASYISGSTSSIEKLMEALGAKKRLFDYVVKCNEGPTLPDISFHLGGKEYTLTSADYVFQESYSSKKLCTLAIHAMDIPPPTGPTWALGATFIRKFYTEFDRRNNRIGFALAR
Protocol: Compounds of Formula I were evaluated as inhibitors of human renin in an in vitro assay, as follows: This human renin inhibition test has been previously described in detail [Papaioannou et al., Clinical and Experimental Hypertension, A7(9), 1243-1257 (1985)]. Human renin was obtained from the National Institute for Biological Standards, London. An incubation mixture was prepared containing the following components: in a total volume of 0.25 mL: 100 mM Tris-acetate buffer at pH 7.4, 25×10-6 Goldblatt units of renin, 0.05 mL of plasma from human volunteers taking oral contraceptives, 6.0 mM Na-EDTA, 2.4 mM phenylmethyl sulfonyl fluoride, 1.5 mM 8-hydroxyquinoline, 0.4 mg/mL bovine serum albumin (BSA), and 0.024 mg/mL neomycin sulfate. This mixture was incubated for two hours at 37° C. in the presence or absence of renin inhibitors. The produced angiotensin I was determined by radioimmunoassay (New England Nuclear kit). Test compounds to be assayed were dissolved in DMSO and diluted with 100 mM Tris-acetate buffer at pH 7.4 containing 0.5% BSA to the appropriate concentration. The final concentration of organic solvent in the reaction mixture was less than 1%. Control incubations at 37° C. were used to correct for effects of organic solvent on renin activity.

[2] = tested on: pepsin; conditions: Umezawa et al, J. Antibiot. 1970; cited from earlier work
[3] = tested on: cathepsin D; conditions: Umezawa et al, J. Antibiot. 1970; cited from earlier work
[4] = tested on: renin; conditions: Umezawa et al, J. Antibiot. 1970; cited from earlier work
[5] = tested on: blood pressure; conditions: after the injection of hog renin into nephrectomized rats; Gross et al, Science 1971; cited from earlier work

| SMILES | IC50 [1] [nM] | inhibitor of aspartyl proteases: pepsin [2] | inhibitor of aspartyl proteases: cathepsin D [3] | inhibitor of aspartyl proteases: renin [4] | reduce blood pressure in vivo [5] |
| --- | --- | --- | --- | --- | --- |
| C#CC[C@H](O)[C@H](O)[C@H](CC1CCCCC1)NC(=O)[C@H](Cc1cscn1)NC(=O)[C@@H](CC(=O)N(C)CCN(C)C)Cc1ccccc1 [Example 1, N^1-[2-[[1S,1R*-(cyclohexylmethyl-2S*,3R*-dihydroxy-5-hexynyl]amino]-2-oxo-1R*-(4-thiazolylmethyl)ethyl]-N^4-[2-(dimethylamino)ethyl]-N^4-methyl-2S*-(phenylmethyl)butanediamide] | 28 | – | – | – | – |
| CC(C)CC(=O)N[C@H](C(=O)N[C@H](C(=O)N[C@@H](CC(C)C)[C@@H](O)CC(=O)N[C@@H](C)C(=O)N[C@@H](CC(C)C)[C@@H](O)CC(=O)O)C(C)C)C(C)C [pepstatin] (Isovaleryl-VV[Sta]A[Sta]-OH) | – | inhibitor of aspartyl proteases such as pepsin | inhibitor of aspartyl proteases such as pepsin, cathepsin D | inhibitor of aspartyl proteases such as pepsin, cathepsin D and renin | found to reduce blood pressure in vivo |

— patent US5508295A, “Use of amino acyl amino propargyl diol compounds for treatment of glaucoma” (G. D. Searle & Co., priority 1994, dated 1996)
